Experiment in all cases: NCI anticancer screen, dose series, 48 h
The test system of test [1] is HT29 colon.
Test [2] relates to K-562 leukemia.
In test [3] the test system is KM12 colon.
In test [4] the test system is SF-268 CNS.
Test [5] has as its system TK-10 renal.
Test [6] relates to U251 CNS.
The subject of test [7] is UACC-62 melanoma.
The subject of test [8] is CAKI-1 renal.
Test [9] concerns NCI-H226 lung.

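Briefly, cells in 96-well plates were exposed to five compound concentrations for 48 h, and endpoints were estimated by linear interpolation. GI50 is the concentration that inhibits growth by half. The concentration for full growth arrest is given as TGI.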

This note sets out measurements from PubChem BioAssay (NCI).

For `CC(C)(C)CC(C)(C)c1cc2c(O)c(c1)Cc1cc(C(C)(C)CC(C)(C)C)cc(c1O)Cc1cc(C(C)(C)CC(C)(C)C)cc(c1O)Cc1cc(C(C)(C)CC(C)(C)C)cc(c1O)Cc1cc(C(C)(C)CC(C)(C)C)cc(c1O)Cc1cc(C(C)(C)CC(C)(C)C)cc(c1O)Cc1cc(C(C)(C)CC(C)(C)C)cc(c1O)Cc1cc(C(C)(C)CC(C)(C)C)cc(c1O)C2`, the TGI in [1], in test [2], in test [3], in test [4], in [5] and in [6] was greater than 100 µM throughout. The compound also returned a TGI in test [7] greater than 100 µM.

As to `CCCCCCCCCCCc1cc(=O)c2c(O)cccc2o1`, the TGI in [8], in [1], in test [2], in [3], in test [9] and in test [4] was greater than 100 µM in each case. The TGI in test [5], in test [6] and in test [7] was greater than 100 µM in each case.

`CC1=CC[C@@H]2C(=O)C=CC=C[C@H]12.[C-]#[O+].[C-]#[O+].[C-]#[O+].[Fe]`: the GI50 in test [1], in [2], in [3], in [9], in [5] and in test [6] was greater than 100 µM throughout. The GI50 in [7] was greater than 100 µM. Moreover, the TGI in test [1], in test [2], in test [3], in test [9], in test [5] and in [6] was greater than 100 µM in each case. The compound further came in with a TGI in test [7] greater than 100 µM.

Take `COc1cc2ccnc(-c3n[nH]c4cc(OC)c(OC)cc34)c2cc1OC`: the TGI in [8], in test [1], in test [2], in test [3], in [9] and in [4] was greater than 100 µM in each case. The TGI in test [5], in [6] and in test [7] was greater than 100 µM throughout.

Consider `O=C(/C=C/c1ccco1)N1CCN(Cc2ccccc2)CC1`, for which the TGI in test [8], in test [1], in [3], in test [4], in test [5] and in [6] was greater than 100 µM throughout. In test [7], this compound gave a TGI greater than 100 µM.

In the case of `COC(=O)c1ccc(N/C=C(/C#N)c2ccsc2)cc1`, the TGI in [8] is 30.5 µM; in test [1] it was 25.3 µM; in test [2], greater than 100 µM; in test [3] it was 32.2 µM; in test [9] it was 39 µM; in test [4] it was 37 µM. Also, the TGI is 30.7 µM in [5], 20.3 µM in test [6] and 60.5 µM in test [7].

On to `COc1ccccc1NC(=O)C1=C(C)NC(C)=C(C(=O)Nc2ccccc2OC)C1c1ccc(C2C(C(=O)Nc3ccccc3OC)=C(C)NC(C)=C2C(=O)Nc2ccccc2OC)cc1`, for which the TGI in [8] was found to be 11.3 µM; in [1], 4.56 µM; in test [2], 13.2 µM; in test [3], 3.38 µM; in test [9] it was 12.1 µM; in test [4], 11.6 µM. Also, the results for the TGI in test [5], in [6] and in [7] were 16.2 µM, 7.01 µM and 3.26 µM, respectively.

As for `Nc1ncc(-c2ccc3ncnc(N4CCc5cc(F)c(Cl)cc54)c3c2)cc1C(F)(F)F`, the GI50 in test [1] was 1.97 µM; in test [2], 1.61 µM; in test [3] it was 2.47 µM; in test [4], 1.24 µM; in [6], 3.5 µM. In addition, the TGI in test [1], in test [2], in test [3], in [4] and in [6] was greater than 100 µM throughout.

Take `Cc1ccc(Nn2c(SCC(=O)Nc3nc(-c4ccccc4)cs3)nc(C)c2C)cc1`: the GI50 in [8] is 1.86 µM; in test [1], 4.37 µM; in [2] it was 3.62 µM; in test [3] it was 4.13 µM; in [4] it was 9.1 µM; in test [5], 18.9 µM. In addition, the GI50 was 4.5 µM in [6] and 3.15 µM in test [7]. Besides, the TGI in test [8] is 6.1 µM; in test [1], 28.2 µM; in [2], greater than 100 µM; in test [3], 19.1 µM; in test [4], greater than 100 µM; in test [5] it was greater than 100 µM. Moreover, the TGI in test [6] and in test [7] was greater than 100 µM each time.

As for `CN(C)C(=S)/N=C(\N)N(C)C`, the TGI in [8], in test [1], in test [2], in test [3], in [9] and in test [4] was greater than 100 µM throughout. The TGI in test [5], in [6] and in test [7] was greater than 100 µM each time.

`NCCNc1nc2ccc(F)cc2c2c(=O)c3cc(F)ccc3sc12`: the GI50 in test [8] is 1.08 µM; in [1], 1.61 µM; in test [2], 2.14 µM; in test [3], 1.81 µM; in test [4] it was 1.62 µM; in test [5], 2.07 µM. Besides, the GI50 was 1.76 µM in test [6] and 1.66 µM in test [7]. Moreover, the TGI in test [8] amounted to 2.78 µM; in [1], 3.06 µM; in [2], 5.41 µM; in test [3] it was 3.46 µM; in test [4], 4.47 µM; in test [5], 3.57 µM. For the same compound, the values for the TGI in [6] and in test [7] were 3.24 µM and 3.06 µM, respectively.

Consider `CCOc1ccc2c(c1)[n+]([O-])c(-c1ccc([N+](=O)[O-])cc1)c(N)[n+]2[O-]`, for which the TGI in test [8], in test [1], in test [2], in test [3], in [9] and in [4] was greater than 100 µM throughout. Further, in test [6], the TGI was greater than 100 µM.

As for `OCC(O)C(OC1OC(CO)C(O)C(O)C1O)c1nn(-c2ccc(Cl)cc2)c2nc3cc(Cl)c(Cl)cc3nc12` (centres undefined), the TGI in [1], in test [2], in test [3], in test [4], in [5] and in test [6] was greater than 100 µM throughout. Also, the TGI in test [7] was greater than 100 µM.

As for `O=C(CC(=O)c1cccc2ccccc12)C(=O)Nc1nccs1`, the TGI in [8], in test [1], in [2], in test [3], in test [9] and in [4] was greater than 100 µM each time. In addition, the TGI in [5], in test [6] and in test [7] was greater than 100 µM throughout.

For `COC(=O)CCC(=O)Nc1cc(C)ccc1C`, the TGI in test [8], in [1], in test [2], in test [3], in test [9] and in test [5] was greater than 100 µM each time. Moreover, the TGI in test [6] and in test [7] was greater than 100 µM in each case.

In the case of `NC(=S)N/N=C1/C(=O)N(c2ccccc2)C(=O)C1C(=O)Nc1ccccc1` (centres undefined), the TGI in test [8], in test [1], in test [3], in [9], in [4] and in test [5] was greater than 100 µM throughout. For the same compound, the TGI in test [6] and in test [7] was greater than 100 µM in each case.

For the compound `C=CC(=O)OCCCS(=O)(=O)[O-].C=CC(=O)OCCCS(=O)(=O)[O-].NC1CCCCC1N.[Pt+4]`, the GI50 in test [8], in test [1], in test [2], in test [3], in [9] and in test [4] was greater than 25 µM each time. Further, the GI50 in [5], in test [6] and in test [7] was greater than 25 µM throughout. Further, the TGI in test [8], in [1], in [2], in test [3], in test [9] and in test [4] was greater than 25 µM each time. Moreover, the TGI in [5], in test [6] and in test [7] was greater than 25 µM in each case.

Take `CCOC(=O)C1=C(Nc2cccc3ccccc23)OCC1=O`: the TGI in [8], in test [1], in test [2], in test [3], in test [9] and in test [4] was greater than 100 µM throughout. In addition, the TGI in test [6] and in test [7] was greater than 100 µM throughout.

Regarding `C#CCOCn1cnc2c(N)ncnc21`, the TGI in test [8], in [1], in test [2], in [3], in test [9] and in [4] was greater than 100 µM each time. Further, the TGI in [5], in [6] and in [7] was greater than 100 µM each time.

Consider `Nc1ncnc2c1N=CN(Oc1ccccc1)N2`, for which the TGI in test [8], in test [1], in test [2], in test [3], in [9] and in [5] was greater than 100 µM in each case. For the same compound, the TGI in [6] and in [7] was greater than 100 µM each time.

In the case of `O=C1Nc2cc(-c3ccc(O)cc3)ccc2/C1=C/c1ccc[nH]1`, the GI50 in [8] was 0.0435 µM; in test [1], 0.979 µM; in test [2], 0.0335 µM; in [3], 0.247 µM; in test [9], 0.673 µM; in test [4], 0.44 µM. For the same compound, the values for the GI50 in test [5], in [6] and in test [7] were 0.418 µM, 0.526 µM and 0.049 µM, respectively. Also, the TGI was 3.59 µM in [8]; greater than 33.8 µM in test [1]; greater than 75.9 µM in test [2]; greater than 100 µM in [3]; greater than 100 µM in [9]; greater than 100 µM in [4]. Moreover, the figures for the TGI in test [5], in test [6] and in test [7] were greater than 71.9 µM, greater than 100 µM and 10.9 µM, respectively.

For the compound `CC(C)CCCC(C)[C@H]1CCC2C3CC=C4C[C@@H](OC(=O)CC(CC(=O)[O-])C(=O)[O-])CC[C@]4(C)C3CC[C@@]21C.N.N.[Pt+4]` (some centres undefined), the GI50 in test [8], in test [1], in [2], in test [5], in test [6] and in test [7] was greater than 100 µM each time. In addition, the TGI in [8], in [1], in test [2], in test [5], in test [6] and in [7] was greater than 100 µM each time.

For the compound `CNC(=O)NCCCCC(NC(=O)OCc1ccccc1)C(=O)OCc1ccccc1` (centres undefined), the TGI was 48.6 µM in [8]; greater than 100 µM in [1]; greater than 100 µM in test [2]; 71 µM in [3]; greater than 100 µM in test [9]; 52.6 µM in [5]. Further, the TGI came to 54.4 µM in test [6] and 47.9 µM in test [7].

Consider `CCSc1nnc(-c2ccc3ccccc3c2O)n1-c1ccccc1`, for which, in test [4], the GI50 was 8.02 µM. Moreover, the TGI in test [4] and in test [5] was greater than 100 µM each time.

Turning to `CC1=C(C(=O)NCc2ccccc2)C(c2ccc(N(C)C)cc2)C(C(=O)NCc2ccccc2)=C(C)N1`, the TGI in test [8], in [1], in [2], in test [3], in [9] and in test [5] was greater than 100 µM in each case. Also, the TGI in test [6] and in test [7] was greater than 100 µM in each case.

On to `Cc1cccc(/C=N/N=C(\N)NO)n1`, for which the TGI in test [8], in test [1], in [2], in [3], in test [4] and in [5] was greater than 100 µM throughout. Besides, the TGI in test [6] is greater than 100 µM; in test [7] it was 8.83 µM.
